Assay results reported in ChEMBL document CHEMBL1136095, “Pyrazole-O-glucosides as novel Na(+)-glucose cotransporter (SGLT) inhibitors” (2003).
The source made the active and inactive calls. The calls are words filed in the database; no cut-off is given here.

How the values were obtained:
[1] = system: Rattus norvegicus; experiment: Urinary glucose excretion in Wistar rat after intravenous administration (3 mg/kg); assay type: functional, Urine
[2] = species: Rattus norvegicus; experiment: Na+ -glucose co-transporter (SGLT) inhibitory activity against [C14]-glucose transport in BBMV's of rat kidney at compound concentration of 10 uM
[3] = species: Rattus norvegicus; experiment: Na+ -glucose co-transporter (SGLT) inhibitory activity against [C14]-glucose transport in BBMV's of rat kidney at compound concentration of 100 uM; assay type: functional
[4] = species: Rattus norvegicus; experiment: Na+ -glucose co-transporter (SGLT) inhibitory activity against [C14]-glucose transport in BBMV's of rat kidney at compound concentration of 100 uM: Not active; assay type: functional

Row | SMILES | Glucose [1] [mg/day] | Inhibition [2] [%] | Inhibition [3] [%] | inhibition [4]
1 | CCc1ccc(Cc2c(C(F)(F)F)n[nH]c2O[C@@H]2O[C@H](CO)[C@@H](O)[C@H](O)[C@H]2O)cc1 | 63 | 84 |  | 
2 | CCc1ccc(Cc2c(C(F)(F)F)n[nH]c2O[C@@H]2O[C@H](C(=O)O)[C@@H](O)[C@H](O)[C@H]2O)cc1 | 2.6 |  | 30 | 
3 | CSc1ccc(Cc2c(C(F)(F)F)n[nH]c2O)cc1 | 0 |  |  | inactive
